Test results reported in paper PMC7179450, “Primary Human Hepatocytes, But not HepG2 or Balb/c 3T3 Cells, Efficiently Metabolize Salinomycin and Are Resistant to Its Cytotoxicity” (Molecules, 2020).
Like-named read-outs stand apart in the source and are kept apart here.

How the values were obtained:
[1] = tested on: humans; conditions: accidental poisoning: nausea, photophobia, limb weakness, tachycardia, muscle pain, mild rhabdomyolysis with myoglobinuria; cited from earlier work
[2] = tested on: HepG2 cells; assay: LDH leakage assay in HepG2; format: cell-based; conditions: Homo sapiens, mean ± SEM, n = 3, read-out: EC50 (effective concentration)
Protocol: (§1) The HepG2 cell line was purchased from the American Type Culture Collection (ATCC® HB-8065™). The cells were cultured in Minimum Essential Medium Eagle (MEME) (Sigma–Aldrich Co. (St. Louis, MO, USA)). Normal murine embryonic fibroblasts, Balb/c 3T3 clone A31 cell line (gift from Department of Swine Diseases of the National Veterinary Research Institute in Pulawy) was cultured in Dulbecco’s Modified Eagle’s Medium (DMEM) (Invitrogen Corporations (Paisley, UK)). The media were supplemented with 10% BCS (Balb/c 3T3), 10% FBS (HepG2), 1% L-glutamine, and 1% antibiotic solution. The cells were maintained in 75 cm^2 cell culture flasks in humidified incubator at 37 °C, in an atmosphere of 5% CO2. […] The initial cell viability was determined with the trypan blue exclusion test. […]
(§2) The concentration ranges of the drugs were chosen according to their solubility and their plasma level. […] The cytotoxicity was assessed after 24 and 48 h of exposure of cell lines or after 12 and 24 h exposure of PHH. […]
(§3) The integrity of the plasma membrane was assessed through the test of lactate dehydrogenase (LDH) release, which was monitored using a commercially available Cytotoxicity Detection Kit (LDH) (Roche Diagnostics, Basel, Switzerland). […] The absorbance was measured at 492 nm in a microplate reader using a blank as a reference.

[3] = tested on: primary human hepatocytes (PHH); assay: LDH leakage assay in primary human hepatocytes; format: cell-based; conditions: Hepatocyte, mean ± SEM, n = 3, read-out: EC50 (effective concentration)
Protocol: Cryopreserved PHH were purchased from the Primacyt GmbH (Schwerin, Germany). Two different lots were chosen based on CYP activity. The donor was a person. The post-thaw viability was 94.6% for lot HH160531 (used in two repetitions) and 85.0% for lot HH130805. The initial cell viability was determined with the trypan blue exclusion test. The cells were thawed and purified using the Plating and Thawing Kit (Primacyt GmbH). Purified hepatocytes were resuspended in Hepatocyte Plating Medium (Primacyt GmbH) and seeded on collagen-coated 96-well plates at a density of 9 × 10^5 cell/mL and incubated at 37 °C with 5% CO2. After 6 h of incubation, the medium was removed and the cells were washed with PBS. Then Human Hepatocyte Maintenance Medium (HHMM) (Primacyt GmbH) with the studied drugs was added to hepatocytes (100 µL/well). […]
as §2, §3

[4] = tested on: rats; conditions: cited from earlier work
[5] = tested on: Balb/c 3T3 fibroblasts; assay: Biotransformation of SAL and metabolites in Balb/c 3T3 fibroblasts (LC-MS/MS); format: in vitro ADME, mouse; conditions: 24 h (Figure 2B)
Protocol: as §1
The medium samples from microplate wells were collected for identifying SAL metabolites and normalized to a cell number. An aliquot of 200 µL of each sample was measured to Eppendorf tube. […] The dry residue was reconstituted in 50% acetonitrile and analyzed with LC-MS/MS. […]
SAL (m/z 773.4 to m/z 431.3) was monitored in multiple reaction monitoring (MRM) modes. […]
The signals for further analysis were selected with the LightSight 2.3 software. […] These MRM transitions (with 20 chromatographic peaks) were then quantified with Multiquant 2.1. software. Quantitative analysis was performed for SAL. […]

[6] = tested on: hepatoma tumor; conditions: mice, doses of 4 and 8 mg/kg b.w.; cited from earlier work

CC[C@@H](C(=O)[C@@H](C)[C@@H](O)[C@H](C)[C@@H]1O[C@@H]([C@@H](CC)C(=O)O)CC[C@@H]1C)[C@H]1O[C@]2(C=C[C@@H](O)[C@]3(CC[C@@](C)([C@H]4CC[C@](O)(CC)[C@H](C)O4)O3)O2)[C@H](C)C[C@@H]1C [SAL, salinomycin]
toxicity in a human [1]: severe toxicity
EC50 ([2]; 24 h exposure): > 25 µg/mL
EC50 ([2]; 48 h exposure): 13.8 ± 0.2 µg/mL
EC50 ([3]; 12 h exposure): 12.9 ± 3.2 µg/mL
EC50 ([3]; 24 h exposure): 11.3 ± 0.7 µg/mL
LD50 [4]: 50 mg/kg b.w.
biotransformation of SAL [5]: no biotransformation
effect on hepatoma tumor [6]: significantly reducing the hepatoma tumor
